Tested on: Jurkat T cells
Experiment: mRNA sequencing of activated Jurkat T cells
Assay type: cell-based, human

## PEITVTPPTP [CABIN1-L-1-2]
P+I
  GPR108 FPKM: 37.394 FPKM
  GPR183 FPKM: 4.735 FPKM
  GRAP2 FPKM: 11.197 FPKM
  GRK5 FPKM: 8.975 FPKM
  GZMH FPKM: 13.893 FPKM
  HAPLN3 FPKM: 58.345 FPKM
  HDC FPKM: 23.209 FPKM
  HHIP FPKM: 6.793 FPKM
  HHIP-AS1 FPKM: 29.854 FPKM
  HIVEP2 FPKM: 9.184 FPKM
  HSP90B1 FPKM: 910.415 FPKM
  HSP90B2P FPKM: 9.619 FPKM
  HSPA5 FPKM: 449.173 FPKM
  ICAM1 FPKM: 12.914 FPKM
  ID2 FPKM: 15.335 FPKM
  IER2 FPKM: 126.884 FPKM
  IER3 FPKM: 26.899 FPKM
  IFFO2 FPKM: 3.163 FPKM
  IFIH1 FPKM: 12.37 FPKM
  IFNG FPKM: 8.858 FPKM
  IGLL1 FPKM: 3.244 FPKM
  IGSF9B FPKM: 8.992 FPKM
  IL2RA FPKM: 10.904 FPKM
  IL3 FPKM: 6.298 FPKM
  IL4I1 FPKM: 7.279 FPKM
  IL16 FPKM: 8.304 FPKM
  IL22 FPKM: 3.136 FPKM
  IL23A FPKM: 17.874 FPKM
  IMPA2 FPKM: 2.882 FPKM
  IRF8 FPKM: 1.914 FPKM
  IRF9 FPKM: 39.375 FPKM
  ISM1 FPKM: 3.737 FPKM
  JAK3 FPKM: 8.871 FPKM
  JUN FPKM: 3.58 FPKM
  JUNB FPKM: 56.126 FPKM
  KBTBD11 FPKM: 2.772 FPKM
  KCNK5 FPKM: 4.904 FPKM
  KCTD11 FPKM: 2.303 FPKM
  KIAA0922 FPKM: 12.911 FPKM
  KIF1B FPKM: 13.254 FPKM
  KIF3B FPKM: 14.583 FPKM
  KLF2 FPKM: 1.375 FPKM
  KSR1 FPKM: 5.998 FPKM
  LAIR2 FPKM: 3.695 FPKM
  LAMP3 FPKM: 9.828 FPKM
  LAX1 FPKM: 7.578 FPKM
  LDLRAP1 FPKM: 0.878 FPKM
  LIME1 FPKM: 11.879 FPKM
  LINC00152 FPKM: 31.801 FPKM
  LINC00426 FPKM: 0.675 FPKM
  LINC00528 FPKM: 5.927 FPKM
  LINC00539 FPKM: 2.351 FPKM
  LINC00977 FPKM: 0.266 FPKM
  LOC729603 FPKM: 3.329 FPKM
  LRRC8B FPKM: 4.298 FPKM
  LRRC45 FPKM: 4.264 FPKM
  LYPD3 FPKM: 2.662 FPKM
  MAP2K3 FPKM: 43.237 FPKM
  MAP2K6 FPKM: 0.955 FPKM
  MBOAT2 FPKM: 3.202 FPKM
  MCM4 FPKM: 27.291 FPKM
  MCM5 FPKM: 33.895 FPKM
  METRNL FPKM: 7.881 FPKM
  MIR221 FPKM: 10.092 FPKM
  MIR4435-1HG FPKM: 16.303 FPKM
  MIR6891 FPKM: 31.815 FPKM
  MMP10 FPKM: 22.372 FPKM
  MRPL39 FPKM: 188.834 FPKM
  MYO1D FPKM: 5.995 FPKM
  MYO1G FPKM: 65.452 FPKM
  MYO7B FPKM: 12.661 FPKM
  NAMPT FPKM: 54.272 FPKM
  NDFIP1 FPKM: 24.432 FPKM
  NDFIP2 FPKM: 12.598 FPKM
  NDST3 FPKM: 5.621 FPKM
  NEIL3 FPKM: 8.336 FPKM
  NEXN FPKM: 5.587 FPKM
  NFE2L3 FPKM: 28.495 FPKM
  NFKBIA FPKM: 70.837 FPKM
  NFKBID FPKM: 8.294 FPKM
  NFKBIE FPKM: 11.793 FPKM
  NINJ1 FPKM: 54.452 FPKM
  NKD2 FPKM: 3.105 FPKM
  NKX3-1 FPKM: 8.412 FPKM
  NLRC5 FPKM: 37.7 FPKM
  NPY FPKM: 4.799 FPKM
  NR4A1 FPKM: 34.85 FPKM
  NR4A2 FPKM: 0.356 FPKM
  NRROS FPKM: 26.059 FPKM
  NT5M FPKM: 1.643 FPKM
  NXN FPKM: 1.571 FPKM
  OAS3 FPKM: 18.24 FPKM
  OSBPL3 FPKM: 23.298 FPKM
  PARP9 FPKM: 84.386 FPKM
  PARP14 FPKM: 72.911 FPKM
  PCBP3 FPKM: 4.642 FPKM
  PDE3B FPKM: 5.194 FPKM
  PEAK1 FPKM: 9.633 FPKM
  PELI1 FPKM: 8.465 FPKM
  PHEX FPKM: 0.786 FPKM
  PHF7 FPKM: 3.075 FPKM
  PHLDA1 FPKM: 52.893 FPKM
  PIDD1 FPKM: 4.471 FPKM
  PIM3 FPKM: 72.895 FPKM
  PKIA FPKM: 18.138 FPKM
  PLAU FPKM: 82.517 FPKM
  PLEKHO1 FPKM: 36.376 FPKM
  PLK3 FPKM: 7.036 FPKM
  PMAIP1 FPKM: 37.469 FPKM
  PMEPA1 FPKM: 2.393 FPKM
  PODXL FPKM: 1.509 FPKM
  POU3F2 FPKM: 0.696 FPKM
  PPFIBP1 FPKM: 12.117 FPKM
  PPM1H FPKM: 4.178 FPKM
  PRKCA FPKM: 11.132 FPKM
  PTK2 FPKM: 13.391 FPKM
  PTPN22 FPKM: 5.119 FPKM
  PTPRE FPKM: 14.28 FPKM
  PWWP2B FPKM: 3.446 FPKM
  PXMP2 FPKM: 7.334 FPKM
  RAG1 FPKM: 0.265 FPKM
  RAG2 FPKM: 0.385 FPKM
  RAP1GAP2 FPKM: 0.285 FPKM
  RAP1GAP FPKM: 1.799 FPKM
  RDH10 FPKM: 5.524 FPKM
  REL FPKM: 5.699 FPKM
  RELB FPKM: 40.689 FPKM
  RGS3 FPKM: 2.303 FPKM
  RGS16 FPKM: 5.595 FPKM
  RMI1 FPKM: 8.198 FPKM
  RORB FPKM: 3.292 FPKM
  S1PR1 FPKM: 0.461 FPKM
  SAMD1 FPKM: 12.809 FPKM
  SECISBP2L FPKM: 12.883 FPKM
  SELPLG FPKM: 3.724 FPKM
  SEMA7A FPKM: 34.623 FPKM
  SERPINB2 FPKM: 14.103 FPKM
  SERPINE1 FPKM: 4.431 FPKM
  SH2B3 FPKM: 14.803 FPKM
  SH2D5 FPKM: 3.557 FPKM
  SH3BGRL3 FPKM: 351.357 FPKM
  SH3RF2 FPKM: 32.15 FPKM
  SHC4 FPKM: 0.686 FPKM
  SIT1 FPKM: 34.287 FPKM
  SIX6 FPKM: 19.444 FPKM
  SLC2A3 FPKM: 40.147 FPKM
  SLC2A4RG FPKM: 2.168 FPKM
  SLC7A5 FPKM: 226.44 FPKM
  SLC25A45 FPKM: 2.626 FPKM
  SLCO3A1 FPKM: 3.095 FPKM
  SLIT1 FPKM: 2.815 FPKM
  SMIM14 FPKM: 3.572 FPKM
  SOCS1 FPKM: 11.547 FPKM
  SOCS3 FPKM: 9.392 FPKM
  SOSTDC1 FPKM: 7.34 FPKM
  SPRY2 FPKM: 17.876 FPKM
  SREBF1 FPKM: 12.747 FPKM
  ST3GAL6-AS1 FPKM: 8.479 FPKM
  ST8SIA4 FPKM: 8.921 FPKM
  STARD4 FPKM: 16.105 FPKM
  STAT1 FPKM: 527.58 FPKM
  STAT5A FPKM: 3.055 FPKM
  STX11 FPKM: 2.972 FPKM
  SYTL1 FPKM: 12.555 FPKM
  TBC1D10C FPKM: 15.764 FPKM
  TBC1D20 FPKM: 18.427 FPKM
  TBX21 FPKM: 39.746 FPKM
  THY1 FPKM: 3.297 FPKM
  TIMP2 FPKM: 1.952 FPKM
  TM4SF1 FPKM: 0.907 FPKM
  TM7SF3 FPKM: 25.052 FPKM
  TMEM229B FPKM: 7.747 FPKM
  TMTC4 FPKM: 3.005 FPKM
  TNFRSF4 FPKM: 11.916 FPKM
  TNFRSF12A FPKM: 6.523 FPKM
  TNFRSF14 FPKM: 12.09 FPKM
  TNFSF9 FPKM: 2.651 FPKM
  TNRC6C FPKM: 4.485 FPKM
  TNS3 FPKM: 1.418 FPKM
  TRAF1 FPKM: 24.962 FPKM
  TRAT1 FPKM: 5.507 FPKM
  TRIM22 FPKM: 3.316 FPKM
  TSHR FPKM: 1.574 FPKM
  TSPAN2 FPKM: 2.119 FPKM
  TSPAN7 FPKM: 42.604 FPKM
  TTC28 FPKM: 1.926 FPKM
  TUBB2A FPKM: 10.912 FPKM
  TUBB3 FPKM: 5.423 FPKM
  UHRF1BP1L FPKM: 7.889 FPKM
  USP30-AS1 FPKM: 9.017 FPKM
  VANGL1 FPKM: 8.842 FPKM
  VASH2 FPKM: 4.245 FPKM
  VGF FPKM: 54.294 FPKM
  XAF1 FPKM: 16.914 FPKM
  XBP1 FPKM: 48.525 FPKM
  XYLB FPKM: 2.311 FPKM
  YBX2 FPKM: 1.594 FPKM
  ZC3H12A FPKM: 17.547 FPKM
Upon T-cell activation
  CD27 and CD70 expression: inhibited CD27 and CD70
  RNA levels of representative T-cell activation markers (IL2, IL3, NFATC1, CCL4, CCL20, CXCL8): reduced RNA levels of representative T-cell activation markers

From US20240376163A1, “PEPTIDE FOR INHIBITING CALCINEURIN AND USE THEREOF” (Seoul National University R&DB Foundation, priority 2023, published 2024)
